Drawing on PubChem BioAssay AID1259411 (Chemical Carcinogenesis Research Information System (CCRIS), 2018), this text covers carcinogen call for 5 molecules.

The series deals with rodent carcinogenicity bioassays, tumor incidence. The series is described as follows: CCRIS carcinogenicity studies. In a few lines: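 Archive of carcinogenicity, mutagenicity, tumor promotion and tumor inhibition results drawn from journals, NCI reports and other sources, expert-reviewed; covers 1985-2011 and is no longer updated.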

The structures appear in SMILES notation. Activity calls are given as the source filed them. The rule behind the calls is not given here.

As for `CCC(Cl)C(Cl)C(Cl)CC(Cl)C(Cl)C(C)Cl` (centres undefined), the carcinogen call reads like this: (Species: MOUSE, Strain/Sex: B6C3F1/FEMALE, Route: GAVAGE, Dose: 0, 125, 250 MG/KG IN CORN OIL 5 D/WK FOR 103 WK, Dose: 0, 125, 250 MG/KG IN CORN OIL 5 D/WK FOR 103 WK, Tumor Site: Type of Lesion: LIVER: HEPATOCELLULAR ADENOMA, HEPATOCELLULAR ADENOMA OR CARCINOMA, THYROID GLAND: FOLLICULAR CELL ADENOMA, FOLLICULAR C) “active; positive”; (Species: MOUSE, Strain/Sex: B6C3F1/MALE, Route: GAVAGE, Dose: 0, 125, 250 MG/KG IN CORN OIL 5 D/WK FOR 103 WK, Dose: 0, 125, 250 MG/KG IN CORN OIL 5 D/WK FOR 103 WK, Tumor Site: Type of Lesion: LIVER: HEPATOCELLULAR ADENOMA, HEPATOCELLULAR ADENOMA OR CARCINOMA) “active; positive”; (Species: RAT, Strain/Sex: F344/FEMALE, Route: GAVAGE, Dose: 0, 312, 625 MG/KG IN CORN OIL 5 D/WK FOR 104 WK, Dose: 0, 312, 625 MG/KG IN CORN OIL 5 D/WK FOR 104 WK, Tumor Site: Type of Lesion: LIVER: NEOPLASTIC NODULE, NEOPLASTIC NODULE OR HEPATOCELLULAR CARCINOMA, THYROID GLAND: FOLLICULAR CELL ADENOMA OR CARCI) “active; positive”; (Species: RAT, Strain/Sex: F344/MALE, Route: GAVAGE, Dose: 0, 312, 625 MG/KG IN CORN OIL 5 D/WK FOR 104 WK, Dose: 0, 312, 625 MG/KG IN CORN OIL 5 D/WK FOR 104 WK, Tumor Site: Type of Lesion: LIVER: NEOPLASTIC NODULE, NEOPLASTIC NODULE OR HEPATOCELLULAR CARCINOMA, KIDNEY: TUBULAR CELL ADENOMA OR ADENOCARCINOMA) “active; positive”.

Consider `O=[N+]([O-])c1ccc2c(ccc3c4ccccc4ccc23)c1`, for which the carcinogen call (Species: MOUSE, Strain/Sex: ICR/FEMALE, Route: INTRAPERITONEAL, Dose: 0, 100 NMOL (TOTAL DOSE) ADMINISTERED IN 3 SUBDOSES OF 1/7, 2/7, AND 4/7 ON DAYS 1, 8 AND 15 OF LIFE, RESPECTIVELY (STUD) was “inactive; negative” and the carcinogen call (Species: MOUSE, Strain/Sex: ICR/MALE, Route: INTRAPERITONEAL, Dose: 0, 100 NMOL (TOTAL DOSE) ADMINISTERED IN 3 SUBDOSES OF 1/7, 2/7, AND 4/7 ON DAYS 1, 8 AND 15 OF LIFE, RESPECTIVELY (STUD) is “inactive; negative”.

On to `CCOc1ccc(NC(C)=O)cc1`, for which the carcinogen call is, setting by setting: (Species: MOUSE, Strain/Sex: B6C3F1/MALE, Route: ORAL, Dose: 0.6, 1.25% IN DIET, Tumor Site: Type of Lesion: KIDNEY: RENAL CELL ADENOMA, RENAL CELL CARCINOMA) “active; positive”; (Species: RAT, Strain/Sex: SD/CSHI/MALE, Route: ORAL, Dose: 0, 2% IN DIET FOR 85 WK (STUDY DURATION: 85 WK), Tumor Site: Type of Lesion: RENAL PELVIS: CARCINOMA, PAPILLOMA, URINARY BLADDER: PAPILLOMA) “active; positive”; (Species: RAT, Strain/Sex: SPRAGUE-DAWLEY/FEMALE, Route: ORAL, Dose: 1.25, 2.5% IN DIET FOR 18 MO, Tumor Site: Type of Lesion: NASAL CAVITY) “active; positive”; (Species: RAT, Strain/Sex: SPRAGUE-DAWLEY/MALE, Route: ORAL, Dose: 0, 0.535% IN DIET FOR 117 WK, Tumor Site: Type of Lesion: KIDNEY, NASAL CAVITY: SQUAMOUS CELL CARCINOMA) “active; positive”; (Species: RAT, Strain/Sex: SPRAGUE-DAWLEY/MALE, Route: ORAL, Dose: 1.25, 2.5% IN DIET FOR 18 MO, Tumor Site: Type of Lesion: NASAL CAVITY, URINARY TRACT) “active; positive”.

With `CC(C)O`, the carcinogen call was “inactive; negative” (Species: MOUSE, Strain/Sex: CD-1/FEMALE, Route: INHALATION, Dose: 0, 500, 2500, 5000 PPM 6 HR/D 5 D/WK FOR 78 WK (STUDY DURATION: 78 WK), Dose: 0, 500, 2500, 5000 PPM 6 HR/D 5 D/WK FOR 78 WK (STUDY DURATION: 78 WK)); “inactive; negative” (Species: MOUSE, Strain/Sex: CD-1/MALE, Route: INHALATION, Dose: 0, 500, 2500, 5000 PPM 6 HR/D 5 D/WK FOR 78 WK (STUDY DURATION: 78 WK), Dose: 0, 500, 2500, 5000 PPM 6 HR/D 5 D/WK FOR 78 WK (STUDY DURATION: 78 WK)); “inactive; negative” (Species: RAT, Strain/Sex: F344/FEMALE, Route: INHALATION, Dose: 0, 500, 2500, 5000 PPM 6 HR/D 5 D/WK FOR 104 WK (STUDY DURATION: 104 WK), Dose: 0, 500, 2500, 5000 PPM 6 HR/D 5 D/WK FOR 104 WK (STUDY DURATION: 104 WK)); “inactive; negative” (Species: RAT, Strain/Sex: F344/MALE, Route: INHALATION, Dose: 0, 500, 2500, 5000 PPM 6 HR/D 5 D/WK FOR 104 WK (STUDY DURATION: 104 WK), Dose: 0, 500, 2500, 5000 PPM 6 HR/D 5 D/WK FOR 104 WK (STUDY DURATION: 104 WK)).

`Cc1ccc2c(c1N)C(=O)c1ccccc1C2=O`: the carcinogen call (Species: MOUSE, Strain/Sex: B6C3F1/FEMALE, Route: ORAL, Dose: 0, 0.06% OF DIET (2 DOSAGE REGIMENS--A & B RECEIVING SAME CONC), TWA, Tumor Site: Type of Lesion: LIVER: HEPATOCELLULAR CARCINOMA, NEOPLASTIC NODULE) is “active; positive”; the carcinogen call (Species: MOUSE, Strain/Sex: B6C3F1/MALE, Route: ORAL, Dose: 0, 0.06% OF DIET (2 DOSAGE REGIMENS--A & B RECEIVING SAME CONC), TWA) is “inactive; negative”; the carcinogen call (Species: RAT, Strain/Sex: F344/FEMALE, Route: ORAL, Dose: 0, 0.10, 0.20% OF DIET, Dose: 0, 0.10, 0.20% OF DIET, Tumor Site: Type of Lesion: LIVER: HEPATOCELLULAR CARCINOMA, NEOPLASTIC NODULE) is “active; positive”; the carcinogen call (Species: RAT, Strain/Sex: F344/MALE, Route: ORAL, Dose: 0, 0.10, 0.20% OF DIET, Dose: 0, 0.10, 0.20% OF DIET, Tumor Site: Type of Lesion: LIVER: HEPATOCELLULAR CARCINOMA, NEOPLASTIC NODULE, KIDNEY: TUBULAR CELL ADENOMA, TUBULAR CELL ADENOCARCINOMA, ADENOCARC) is “active; positive”.
